Test results: patent US7772275B2, “Compositions and method for treating affective, painful or allergic disorders” (Gideon Pharmaceuticals, Inc., priority 2002, dated 2010)

How the values were obtained:
[1] = Applicant's evaluation of sedation with the cis isomer at therapeutically effective dosages; type: in vivo
Excerpt: In an attempt to discover a compound that might have similar effectiveness to doxepin hydrochloride U.S.P. but less associated sedation, the applicant has evaluated the cis isomer, which as mentioned above constitutes less than 18.1 % of doxepin hydrochloride. […] The invention includes pharmaceutical compositions of cis doxepin suitable for administration to patients with affective disorders, painful disorders, or allergic disorders.

[2] = in animals; 'purportedly'; cited from earlier work
[3] = test system: pruritic skin lesions of atopic dermatitis; assay: Cream applied to pruritic skin lesions by patients with atopic dermatitis; type: in vivo, human; settings: cream 1.0% by weight, applied two to four times daily
Excerpt: A cream containing cis doxepin isomer 1.0% by weight is applied two to four times daily to pruritic skin lesions by patients with atopic dermatitis.

In the case of CN(C)CC/C=C1/c2ccccc2COc2ccccc21.Cl [cis doxepin hydrochloride], the “sedation compared with doxepin hydrochloride U.S.P.” value [1] is listed as “produces less sedation”, the “potency compared with doxepin hydrochloride U.S.P.” value [2] is listed as “more potent” and the relief of itching [3] is listed as “provides for relief of itching”. For the same compound, the “resolution of the skin lesions” value [3] was “more prompt resolution of the skin lesions” and the “sedation compared with prior art doxepin creams in which the trans isomer is predominant” value [3] was “without producing the incidence or severity of sedation”.
